Measurements taken from paper PMC9386018, “A lymphatic-absorbed multi-targeted kinase inhibitor for myelofibrosis therapy” (Nature Communications, 2022).
Where “and” joins values, the source holds several entries; their conditions need not be identical. Identical values can stand only once.

Assay: Pharmacokinetic analysis of plasma after intravenous and oral dosing

Concentration (Supplementary Figure 6a, i.v., Time 0.167 h, individual replicates): 6.65 ng/mL and 5.91 ng/mL
Concentration (Supplementary Figure 6a, p.o., Time 0.167 h, individual replicates): 36.6 ng/mL and 47.3 ng/mL and 12.7 ng/mL
Concentration (Supplementary Figure 6a, p.o., Time 0.5 h, individual replicates): 11.6 ng/mL and 6.25 ng/mL
Concentration (Supplementary Figure 6a, p.o., Time 1 h, individual replicates): 8.93 ng/mL and 16.9 ng/mL and 5.41 ng/mL
concentration at 0.167 h (female, CD-1, mouse, plasma, iv, 15 mg kg^−1, Concentration, Supplementary Figure 6a, Time 0.167 h, individual replicates): 9.48 ng/mL
concentration at 0.5 h (female, CD-1, mouse, plasma, iv, 15 mg kg^−1, Concentration, Time 0.5 h, individual animals, Supplementary Figure 12b): 642 ng/mL
concentration at 1 h (female, CD-1, mouse, plasma, iv, 15 mg kg^−1, Concentration, Time 1 h, individual animals, Supplementary Figure 12b): 694 ng/mL
concentration at 2 h (female, CD-1, mouse, plasma, iv, 15 mg kg^−1, Concentration, Time 2 h, individual animals, Supplementary Figure 12b): 122 ng/mL
concentration at 4 h (female, CD-1, mouse, plasma, iv, 15 mg kg^−1, Concentration, Time 4 h, individual animals, Supplementary Figure 12b): 36.6 ng/mL
concentration at 7 h (female, CD-1, mouse, plasma, iv, 15 mg kg^−1, Concentration, Time 7 h, individual animals, Supplementary Figure 12b): 23.1 ng/mL
concentration at 16 h (female, CD-1, mouse, plasma, iv, 15 mg kg^−1, Concentration, Time 16 h, individual animals, Supplementary Figure 12b): 1.67 ng/mL
concentration at 24 h (female, CD-1, mouse, plasma, iv, 15 mg kg^−1, Concentration, Time 24 h, individual animals, Supplementary Figure 12b): 3.48 ng/mL
concentration at 0.5 h (female, CD-1, mouse, plasma, po, 400 mg kg^−1, Concentration, Supplementary Figure 6a, Time 0.5 h, individual replicates): 8.5 ng/mL
concentration at 2 h (female, CD-1, mouse, plasma, po, 400 mg kg^−1, Concentration, Supplementary Figure 6a, Time 2 h, individual replicates): 3.37 ng/mL
Concentration (i.v., Time 0.167 h, individual animals, Supplementary Figure 12b): 6980 ng/mL and 3600 ng/mL and 9800 ng/mL
Concentration (i.v., Time 0.5 h, individual animals, Supplementary Figure 12b): 950 ng/mL and 1228 ng/mL
Concentration (i.v., Time 1 h, individual animals, Supplementary Figure 12b): 1082 ng/mL
Concentration (i.v., Time 2 h, individual animals, Supplementary Figure 12b): 115.8 ng/mL and 191 ng/mL
Concentration (i.v., Time 4 h, individual animals, Supplementary Figure 12b): 46.7 ng/mL and 58.4 ng/mL
Concentration (i.v., Time 7 h, individual animals, Supplementary Figure 12b): 33.2 ng/mL and 30.9 ng/mL
Concentration (i.v., Time 16 h, individual animals, Supplementary Figure 12b): 1.98 ng/mL
Concentration (i.v., Time 24 h, individual animals, Supplementary Figure 12b): 2.84 ng/mL and 3.15 ng/mL
Concentration (p.o., Time 0.167 h, individual animals, Supplementary Figure 12b): 470 ng/mL and 532 ng/mL and 956 ng/mL
Concentration (p.o., Time 0.5 h, individual animals, Supplementary Figure 12b): 3100 ng/mL and 1908 ng/mL and 6600 ng/mL
Concentration (p.o., Time 1 h, individual animals, Supplementary Figure 12b): 1430 ng/mL and 460 ng/mL and 669 ng/mL
Concentration (p.o., Time 2 h, individual animals, Supplementary Figure 12b): 1190 ng/mL and 582 ng/mL and 3880 ng/mL
Concentration (p.o., Time 4 h, individual animals, Supplementary Figure 12b): 221 ng/mL and 348 ng/mL and 1410 ng/mL
Concentration (p.o., Time 7 h, individual animals, Supplementary Figure 12b): 1250 ng/mL and 340 ng/mL and 726 ng/mL
Concentration (p.o., Time 16 h, individual animals, Supplementary Figure 12b): 461 ng/mL and 352 ng/mL and 189 ng/mL
Concentration (p.o., Time 24 h, individual animals, Supplementary Figure 12b): 55.8 ng/mL and 114 ng/mL and 252 ng/mL
Compound: O=C(O)CCOCCOCCOCCONC(=O)c1ccc(F)c(F)c1Nc1ccc(I)cc1F [LP-622, 1-(3,4-difluoro-2-((2-fluoro-4-iodophenyl)amino)phenyl)-1-oxo-3,6,9,12-tetraoxa-2-azapentadecan-15-oic acid]
